Reference: PMC12434521, “Characterization of Next-Generation Inhibitors for the Inward-Rectifier Potassium Channel Kir2.1: Discovery of VU6080824” (ACS Medicinal Chemistry Letters, 2025)
pIC50: −log10 of the molar value. Like-named read-outs stand apart in the source and are kept apart here.

Columns and labels:
Kir4.1 [1] = target: T1, Kir4.1 (Homo sapiens, UniProt P78508); assay: Kir4.1 thallium flux assay; format: cell-based; conditions: selective up to 10 μM
T1 sequence (P78508 1-379): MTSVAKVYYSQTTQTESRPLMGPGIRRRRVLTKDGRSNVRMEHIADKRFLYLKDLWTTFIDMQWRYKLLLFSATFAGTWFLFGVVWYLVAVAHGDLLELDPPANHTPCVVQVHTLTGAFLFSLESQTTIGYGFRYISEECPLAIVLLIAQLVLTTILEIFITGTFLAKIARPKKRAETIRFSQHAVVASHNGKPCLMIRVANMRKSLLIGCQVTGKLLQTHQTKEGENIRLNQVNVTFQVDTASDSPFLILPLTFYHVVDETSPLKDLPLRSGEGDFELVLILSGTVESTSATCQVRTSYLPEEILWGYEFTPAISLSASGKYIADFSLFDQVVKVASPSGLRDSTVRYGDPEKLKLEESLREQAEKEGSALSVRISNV

Kir2.2 = target: T2, Kir2.2 (Homo sapiens, UniProt Q14500); assay: Kir2.2 manual patch clamp (MPC); format: cell-based
T2 construct: expressed in transfected cells
T2 sequence (Q14500 1-433): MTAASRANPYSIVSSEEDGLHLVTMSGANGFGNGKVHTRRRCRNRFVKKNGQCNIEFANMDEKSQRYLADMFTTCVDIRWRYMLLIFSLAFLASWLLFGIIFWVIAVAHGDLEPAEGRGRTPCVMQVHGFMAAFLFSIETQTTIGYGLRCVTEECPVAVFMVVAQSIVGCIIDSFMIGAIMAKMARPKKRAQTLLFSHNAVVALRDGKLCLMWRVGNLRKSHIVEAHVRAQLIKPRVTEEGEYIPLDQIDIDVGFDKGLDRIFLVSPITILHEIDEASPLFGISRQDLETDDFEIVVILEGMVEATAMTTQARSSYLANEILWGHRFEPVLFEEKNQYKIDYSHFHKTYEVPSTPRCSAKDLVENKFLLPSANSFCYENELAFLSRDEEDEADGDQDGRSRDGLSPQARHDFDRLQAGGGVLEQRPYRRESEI
Procedure: (§1) Manual Patch Claim Assay Experimental Conditions
(§2) Whole-cell patch-clamp electrophysiology was used to record K ir2.1 currents from a stably transfected monoclonal T-Rex-HEK-293 cell line with a tetracycline-inducible promoter expressing human Kir2.1, as described previously1 cultured in a 5% CO2 incubator at 37°C. Kir2.1 expression was induced by overnight treatment with 1 µg/mL tetracycline. Cells were dissociated using 0.25% Trypsin-EDTA and seeded onto 12 mm circular coverslips (Electron Microscopy Sciences, PA, USA) for same-day whole-cell patch-clamp recordings. Kir2.1 currents were recorded at room temperature using an AxoPatch 200B amplifier with Clampex 10.7 software (Molecular Devices, USA). The voltage-clamp protocol consisted of a 1-s step to -120 mV from a -80 mV holding potential, followed by a 2-s ramp to +40 mV, repeated every 10 s. Data were sampled at 5 kHz and filtered at 1 kHz. Patch pipettes, pulled from 1.5 mm OD thin-walled capillaries (Warner Instruments, MA, USA) using a Sutter P-1000 puller (Sutter Instrument, CA, USA), had resistances of 2–3 MΩ when filled with intracellular solution containing (mM): 135 KCl, 10 HEPES, 1 EGTA, 2 MgCl2, 2 Na2ATP (pH 7.35, adjusted with KOH). The extracellular solution contained (mM): 135 NaCl, 5 KCl, 2 CaCl2, 1 MgCl2, 5 Glucose, 10 HEPES, 10 Sucrose (pH 7.35, adjusted with NaOH). After establishing stable baseline Kir2.1 currents, cells were perfused with compounds at concentrations of 0.03–30 µM until response saturation (within minutes).
(§3) Recordings concluded with a 2 mM Ba2+ solution to isolate Ba2+-sensitive currents, with compound responses expressed as fractions of this current. Current amplitudes at the -120 mV step were analyzed using Clampfit 11.2 (Molecular Devices). IC50 values were calculated by fitting the Hill equation to concentration-response curves (CRCs) using variable -slope nonlinear regression in GraphPad Prism 10.4 (GraphPad Software).
(§4) MPC experiments for Kir2.2 and Kir2.3 were conducted in an analogous fashion.1

Kir2.3 = target: T3, Kir2.3 (Homo sapiens, UniProt P48050); assay: Kir2.3 manual patch clamp (MPC); format: cell-based
T3 construct: expressed in transfected cells
T3 sequence (P48050 1-445): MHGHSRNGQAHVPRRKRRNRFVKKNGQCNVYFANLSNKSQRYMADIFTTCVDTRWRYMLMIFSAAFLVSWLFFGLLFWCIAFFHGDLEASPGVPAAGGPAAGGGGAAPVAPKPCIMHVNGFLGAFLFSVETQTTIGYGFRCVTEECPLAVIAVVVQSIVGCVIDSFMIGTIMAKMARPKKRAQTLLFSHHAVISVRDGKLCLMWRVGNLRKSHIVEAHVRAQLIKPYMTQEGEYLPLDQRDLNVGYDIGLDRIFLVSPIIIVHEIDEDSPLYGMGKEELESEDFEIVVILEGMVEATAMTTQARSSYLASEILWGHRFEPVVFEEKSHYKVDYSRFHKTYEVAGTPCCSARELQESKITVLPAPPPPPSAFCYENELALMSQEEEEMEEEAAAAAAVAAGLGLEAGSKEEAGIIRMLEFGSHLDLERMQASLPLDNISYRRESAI
Procedure: as §1, §2, §3, §4

Kir7.1 = system: Kir7.1; design: method as in PMID 21615117; conditions: cited from earlier work
Kir4.1 [2] = target: T1, Kir4.1; design: method as in PMID 21615117; conditions: cited from earlier work
human Kir2.1 = target: T4, human Kir2.1 (Homo sapiens, UniProt P63252); design: method as in PMID 21615117; conditions: pH 7.4; read-out: Kir2.1 manual patch clamp IC50 (original report); cited from earlier work
T4 construct: expressed in transfected cells
T4 sequence (P63252 1-427): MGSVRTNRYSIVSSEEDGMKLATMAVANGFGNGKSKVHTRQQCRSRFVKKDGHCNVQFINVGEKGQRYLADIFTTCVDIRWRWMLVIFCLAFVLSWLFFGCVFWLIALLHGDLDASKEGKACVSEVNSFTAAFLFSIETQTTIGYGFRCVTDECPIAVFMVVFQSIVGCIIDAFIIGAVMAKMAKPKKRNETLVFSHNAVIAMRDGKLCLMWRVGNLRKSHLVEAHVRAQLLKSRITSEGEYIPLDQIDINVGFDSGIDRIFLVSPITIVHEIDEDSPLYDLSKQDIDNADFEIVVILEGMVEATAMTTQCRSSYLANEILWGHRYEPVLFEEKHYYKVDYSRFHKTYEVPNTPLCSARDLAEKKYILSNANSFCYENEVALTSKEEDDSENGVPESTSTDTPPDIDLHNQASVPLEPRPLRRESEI

Row | SMILES | Kir2.1/Kir2.2 Selectivity (MPC) (Kir2.2) [fold] | Kir2.1/Kir2.3 Selectivity (MPC) (Kir2.3) [fold] | other results
1 | COc1ccc(CNCc2ccc(-c3cccc(OC)c3)cc2)cc1 [Compound 5s, 1-(3′-Methoxy-[1,1’-biphenyl]-4-yl)-N-(4-methoxybenzyl)methanamine] | 2.1 | 2.5 | pIC50 (Kir4.1 [1]): < 5.00; pIC50 (Kir2.2): 6.12; Kir2.1/Kir2.2 Selectivity (MPC) (Kir2.2; listed as VU6080824): approximately 2 fold; pIC50 (Kir2.3): 6.07; Kir2.1/Kir2.3 Selectivity (MPC) (Kir2.3; listed as VU6080824): approximately 2 fold
2 | [2H]C([2H])([2H])Oc1ccc(CNCc2ccc(-c3cccc(OC)c3)cc2)cc1 [Compound 9] | 1.4 | 1.8 | –
3 | [2H]C([2H])([2H])Oc1cccc(-c2ccc(CNCc3ccc(OC)cc3)cc2)c1 [Compound 11] | 0.73 | 1.3 | –
4 | [2H]C([2H])([2H])Oc1ccc(CNCc2ccc(-c3cccc(OC([2H])([2H])[2H])c3)cc2)cc1 [Compound 13] | 3.2 | 2.4 | –
5 | COc1ccc(CNCc2cccc3ccccc23)cc1 [ML133, N-(4-methoxybenzyl)-1-(naphthalen-1-yl)methanamine, reference compound] | – | – | pIC50 (Kir7.1): < 4.52; pIC50 (Kir4.1 [2]): < 4.52; pIC50 (human Kir2.1): 5.74
